Assay results from patent publication US20020076693A1, “Novel cell surface receptor for HIV retroviruses, therapeutic and diagnostic uses” (priority 1997, published 2002).
pIC50: −log10 of the molar value. Values joined by “and” are separate entries in the source; they are usually repeats but may differ in a detail not shown here. Identical values can stand only once.

Legend:
HIV-1 Lai = test: HIV entry into HeLa P4 / P4-C5 cells (β-galactosidase activity), HIV-1 Lai; assay type: cell-based
VSV/HIV = assay type: cell-based
[1] = test system: HIV-1 pseudotyped Mo-MLV virus; test: Infection of CEM cells by HIV-1 pseudotyped Mo-MLV virus (p24); conditions: p24 at 48 hours p.i., AZT 5 μM, TASP 5 μM
Method: CEM cells (2×10^5) were infected with the HIV-1 pseudoryped Mo-MLV virus (Experimental procedure) at 95 ng of p24/ml, in the absence (histogram Control) or presence of different additions (as indicated). The infection was monitored by the production of p24, which was measured in the culture supernatant at 48 hours p.i. The mean±SD of duplicate samples is given. Treatment of cells with the different antibodies was as in FIG. 6 +L. For a control of infection, cells were pretreated with 5 μM AZT before infection.
Hela cells were cotransfected by electroporation with plasmids pNL4-3 defective in env gene (Borman et al., 1995) and pE4070A expressing amphotrope envelope glycoproteins of Mo-MLV (Battini et al., 1996). Electroporation (Schwartz et al., 1996) was performed at 200 V, 960 μF, using a 4 mm wide cuvettes in a BIO-Rad Gene Pulser. The pseudotyped virus was recovered from the culture supernatant after 48 hours of culturing.

HIV-1 Bal = test: HIV entry into HeLa P4-C5 cells (β-galactosidase), HIV-1 Ba-L; assay type: cell-based; conditions: HIV-1 Ba-L; heparin; mAb a-V3 5 μg/ml
HIV-1 JRCSF = test: HIV entry into HeLa P4-C5 cells (β-galactosidase), HIV-1 JRCSF; assay type: cell-based; conditions: HIV-1 JRCSF; heparin 1, 5, 10 μg/ml
HIV-2 ROD = test: HIV entry into HeLa P4-C5 cells (β-galactosidase), HIV-2 ROD; assay type: cell-based; conditions: heparin 1, 5, 10 μg/ml
SIVmac = SIVmac entry into HeLa cells (β-galactosidase); assay type: cell-based, SIV; conditions: β-galactosidase at 48 hours
HIV-1 Ada-M = HIV-1 Ada-M entry into HeLa P4-C5 cells (β-galactosidase); assay type: cell-based; conditions: HeLa P4-C5, β-galactosidase at 48 hours
Method: HeLa cells (P4-C5) were treated (incubation at 37° C., 30 min) with AZT (5 μM), (α-CD4 mAb CBT4 (5 μg/ml) before infection with the different HIV isolates in order to obtain the background β-galactosidase activity compared to untreated cells (Control). During the same time, the different HIV isolates were treated (incubation at room temperature, 15 min) with 1, 5, and 10 μg/ml of heparin before addition to untreated cells. The b-galactosidase activity was assayed at 48 hours post-infection as a measure of HIV entry (3 +L7).

[2] = test system: HIV-1 AZT resistant, Saquinavir resistant, Nevirapine resistant; test: Entry of HIV-1 isolates resistant to antiviral drugs into HeLa cells (β-galactosidase); assay type: cell-based; conditions: heparin 5 mg/ml
Method: HIV entry and replication, results in the activation of the HIV LTR, leading to the expression of the lacZ gene. Therefore, at 24 and 48 hours post-infection, the β-galactosidase activity could be measured in cell extracts directly. Consequently, this latter technique could be used to monitor HIV entry into cells. The HIV dose used corresponded to the amount of virus containing 20-40 ng/ml of p24.
In these experiments, the background values of the β-galactosidase activity were assesed by the samples incubated with the a-CD4 mAb. Furthermore, the effect of heparin (5 mg/ml) was investigated.

[3] = test system: V3 loop-BPs (nucleolin, PHAP II, PHAP I); test: BIAcore biosensor binding to immobilized V3 loop-BPs; set-up: species or system human; conditions: for equilibrium affinity constant Ka: binding to the V3 loop-BPs; for Ka (equilibrium affinity constant) / ka (association rate constant) / kd (dissociation rate constant): binding protein(s) V3 loop-BPs, BIAcore
V3 loop-BPs [4] = test: Inhibition of 5[Kψ(CH2N)PR]-TASP binding to the V3 loop-BPs (biosensor); set-up: species or system human; conditions: read-out: IC50 for the inhibition of 5[Kψ(CH2N)PR]-TASP binding to the V3 loop-BPs, increasing concentrations of gp120 HIV-1 Lai
V3 loop-BPs [5] = test: ELISA binding of proteins to coated V3 loop-BPs; set-up: species or system human; conditions: gp120 1 ng/ml, gp41 2 ng/ml, histone H3
Method: This is an ELISA-type experiment using the purified preparation of the V3 loop-BPs which was as described in FIG. 2 +L. The purified preparation of the V3 loop-BPs at different concentrations (12;5 to 200 ng/ml; abscissa) was coated to the plate before incubation with either gp120 (at 1 ng/ml; ), gp41 (at 2 ng/ml;), or histone H3 (1 μg/ml;). […] As a control mAb, we used mAb OKT4A specific for CD4. The abscissa gives the concentration of V3 loop-BPs in ng/ml. The ordinate gives the optical density (OD) values measured at 450 nm as an indicator of reactivity. An OD value less than 0.2 was considered as not significant. mAb OKT4A at 1 mg/ml gave an OD value of 0.20 when used in wells preincubated with either gp120, gp41, or histone H3. Rabbit antiserum against CXCR4 at dilutions as low as 1:200 generated an OD value of 0.15.
The resulting absorbance was measured at 450 nm.

CD4 = CD4 (Homo sapiens, UniProt P01730); test: BIAcore biosensor binding to soluble CD4; conditions: binding protein soluble recombinant CD4, BIAcore

| Compound | equilibrium affinity constant Ka [3] | Ka (equilibrium affinity constant) [3] | ka (association rate constant) [3] | kd (dissociation rate constant) [3] | Ka (equilibrium affinity constant) (CD4) | ka (association rate constant) (CD4) | kd (dissociation rate constant) (CD4) | further results |
| --- | --- | --- | --- | --- | --- | --- | --- | --- |
| Cc1cn([C@H]2C[C@H](N=[N+]=[N-])[C@@H](CO)O2)c(=O)[nH]c1=O [AZT, reference compound] | – | – | – | – | – | – | – | inhibition of HIV infection monitored by the production of p24 (HIV-1 Lai; AZT 5 μM): more than 99%; effect on VSV-HIV pseudotyped virus entry and replication (VSV/HIV): inhibited; effect on infection by HIV-1 pseudotyped Mo-MLV virus [1]: inhibited |
| Heparin [reference compound] | – | – | – | – | – | – | – | effect on viral entry (β-galactosidase activity at 48 hours post-infection) (HIV-1 Lai; HIV-1 LAI, heparin 1, 5, 10 μg/ml, mAb a-V3 5 μg/ml): inhibits; effect on viral entry (β-galactosidase activity at 48 hours post-infection) (HIV-1 Bal): no significant effect; effect on viral entry (β-galactosidase activity at 48 hours post-infection) (HIV-1 JRCSF): no significant effect; effect on viral entry (β-galactosidase activity at 48 hours post-infection) (HIV-2 ROD): inhibits; effect on SIVmac entry (SIVmac): inhibits; effect on HIV-1 Ada-M entry (HIV-1 Ada-M): inhibits; effect on entry of drug-resistant HIV-1 isolates [2]: drastically inhibited |
| NCTRPNNNRKSIRIQRGPGRAFVTIGKIGNMRQAHCNIS [V3 loop-Lai, synthetic V3 loop peptide of T-cell tropic HIV-1 Lai] | 5.1e+06 M⁻¹ | – | – | – | – | – | – | – |
| NCTRPNNNTRKSIHIGPGRAFYTGEIIGDIRQAHCNLS [V3 loop-Ba-L, synthetic V3 loop peptide of macrophage-tropic HIV-1 Ba-L] | 1.5e+06 M⁻¹ | – | – | – | – | – | – | – |
| gp120 HIV-1 Lai: recombinant external envelope glycoprotein of HIV-1 Lai | 2.1e+08 M⁻¹ | 2.1e+08 M⁻¹ | 4.40 × 10^5 M^−1S^−1 | 2.10 × 10^−3 S^−1 | 1.08e+09 M⁻¹ | 5.88 × 10^5 M^−1S^−1 | 54.50 × 10^−3 S^−1 | pIC50 (V3 loop-BPs [4]): ~8.52; binding to the purified V3 loop-BPs in ELISA (V3 loop-BPs [5]): bind in a dose-dependent manner |
| gp120 HIV-1 MN: recombinant gp120 of HIV-1 MN | 4.3e+08 M⁻¹ | 4.3e+08 M⁻¹ | 1.90 × 10^5 M^−1S^−1 | 0.44 × 10^−3 S^−1 | 7.7e+08 M⁻¹ | 2.98 × 10^5 M^−1S^−1 | 38.60 × 10^−3 S^−1 | – |
| gp120 HIV-1 SF2 2/3: nonglycosylated form of gp120 of HIV-1 SF2 (Env 2-3) | 1.6e+08 M⁻¹ | 1.6e+08 M⁻¹ | 3.80 × 10^5 M^−1S^−1 | 2.40 × 10^−3 S^−1 | – | – | – | – |
| gp120 HIV-1 SF2: recombinant gp120 of HIV-1 SF2 produced in CHO cells | 2.3e+09 M⁻¹ | 2.32e+09 M⁻¹ | 0.65 × 10^5 M^−1S^−1 | 0.028 × 10^−3 S^−1 and 0.03 × 10^−3 S^−1 | 2.1e+08 M⁻¹ | 11.50 × 10^5 M^−1S^−1 | 5.60 × 10^−3 S^−1 | – |
